Reference: patent US10597388B2, “Pyridazinone herbicides” (FMC CORPORATION, priority 2014, dated 2020)

Legend:
Test in all cases: Test D controlled growth environment herbicide test, pre- and postemergence
Type in all cases: in vivo
[1] = system: bluegrass (annual bluegrass, Poa annua)
In short: (§1)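 Rating is visual, 0–100 scale (100 = complete control), made against untreated plants 14–21 d after treatment in controlled growth conditions. Postemergence sprays went onto 1- to 4-leaf plants in peat medium; preemergence sprays onto silt loam after sowing; formulation included a surfactant.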

[2] = system: radish, wild (wild radish, Raphanus raphanistrum)
In short: as §1

[3] = system: oilseed rape (Brassica napus)
In short: as §1

[4] = system: pigweed (Amaranthus retroflexus)
In short: as §1

[5] = system: buckwheat, wild (wild buckwheat, Polygonum convolvulus)
In short: as §1

[6] = system: chamomile (scentless chamomile, Matricaria inodora)
In short: as §1

[7] = system: field poppy (Papaver rhoeas)
In short: as §1

[8] = system: barley, winter (winter barley, Hordeum vulgare)
In short: as §1

[9] = system: speedwell (bird's-eye speedwell, Veronica persica)
In short: as §1

[10] = system: galium (catchweed bedstraw, Galium aparine)
In short: as §1

[11] = system: barley, spring (spring barley, Hordeum vulgare)
In short: as §1

[12] = system: oat, wild (wild oat, Avena fatua)
In short: as §1

[13] = system: mustard, wild (wild mustard, Sinapis arvensis)
In short: as §1

[14] = Postemergence, 31 g ai/ha, scale 0 to 100 (0 no effect, 100 complete control)
[15] = Postemergence, 125 g ai/ha, visual rating on scale 0 (no effect) to 100 (complete control), 14 to 21 d
[16] = Postemergence, 250 g ai/ha, scale 0 to 100 (0 no effect, 100 complete control)
[17] = Preemergence, 62 g ai/ha, scale 0 to 100 (0 no effect, 100 complete control)
[18] = Preemergence, 125 g ai/ha, scale 0 to 100 (0 no effect, 100 complete control)
[19] = Preemergence, 250 g ai/ha, scale 0 to 100 (0 no effect, 100 complete control)
[20] = postemergence, 62 g ai/ha, scale 0 to 100, 0 no effect, 100 complete control

Cc1cc(C)c2sc(C)c(-c3c(OC(=O)OCCCl)c(C)nn(C)c3=O)c2c1 [Compound 85]
Bluegrass plant response rating [1, 14]: 10 | Plant response rating, Bluegrass [1, 15]: 25 | Plant response rating, Bluegrass [1, 16]: 40 | Plant response rating (scale of 0 to 100), Bluegrass ([1]; Preemergence, 31 g ai/ha): 40 | Plant response rating, Bluegrass [1, 17]: 60 | Plant response rating, Bluegrass [1, 18]: 65 | Plant response rating, Bluegrass [1, 19]: 75 | Plant response rating, Bluegrass [1, 20]: 20 | Radish, Wild plant response rating [2, 14]: 60 | Plant response rating, Radish, Wild [2, 15]: 75 | Plant response rating, Radish, Wild [2, 16]: 80 | Plant response rating (scale of 0 to 100), Radish, Wild ([2]; Preemergence, 31 g ai/ha): 0 | Plant response rating (scale of 0 to 100), Radish, Wild ([2]; Preemergence, 62 g ai/ha): 25 | Plant response rating, Radish, Wild [2, 18]: 100 | Plant response rating, Radish, Wild [2, 19]: 100 | Plant response rating, Radish, Wild [2, 20]: 65 | Oilseed Rape plant response rating [3, 14]: 65 | Plant response rating, Oilseed Rape [3, 15]: 70 | Plant response rating, Oilseed Rape [3, 16]: 80 | Plant response rating (scale of 0 to 100), Oilseed Rape ([3]; Preemergence, 31 g ai/ha): 0 | Plant response rating (scale of 0 to 100), Oilseed Rape ([3]; Preemergence, 62 g ai/ha): 0 | Plant response rating, Oilseed Rape [3, 18]: 20 | Plant response rating, Oilseed Rape [3, 19]: 30 | Plant response rating, Oilseed Rape [3, 20]: 70 | Pigweed plant response rating [4, 14]: 75 | Plant response rating, Pigweed [4, 15]: 85 | Plant response rating, Pigweed [4, 16]: 85 | Plant response rating (scale of 0 to 100), Pigweed ([4]; Preemergence, 31 g ai/ha): 95 | Plant response rating (scale of 0 to 100), Pigweed ([4]; Preemergence, 62 g ai/ha): 100 | Plant response rating, Pigweed [4, 18]: 100 | Plant response rating, Pigweed [4, 19]: 100 | Plant response rating, Pigweed [4, 20]: 80 | Buckwheat, Wild plant response rating [5, 14]: 95 | Plant response rating, Buckwheat, Wild [5, 15]: 100 | Plant response rating, Buckwheat, Wild [5, 16]: 100 | Plant response rating (scale of 0 to 100), Buckwheat, Wild ([5]; Preemergence, 31 g ai/ha): 20 | Plant response rating, Buckwheat, Wild [5, 17]: 65 | Plant response rating, Buckwheat, Wild [5, 18]: 80 | Plant response rating, Buckwheat, Wild [5, 19]: 100 | Plant response rating, Buckwheat, Wild [5, 20]: 100 | Chamomile plant response rating [6, 14]: 75 | Plant response rating, Chamomile [6, 15]: 90 | Plant response rating, Chamomile [6, 16]: 85 | Plant response rating, Chamomile [6, 20]: 75 | Field Poppy plant response rating [7, 14]: 70 | Plant response rating, Field Poppy [7, 15]: 80 | Plant response rating, Field Poppy [7, 16]: 95 | Plant response rating, Field Poppy [7, 19]: 95 | Plant response rating, Field Poppy [7, 20]: 90 | Barley, Winter plant response rating [8, 14]: 0 | Plant response rating, Barley, Winter [8, 15]: 5 | Plant response rating, Barley, Winter [8, 16]: 10 | Plant response rating (scale of 0 to 100), Barley, Winter ([8]; Preemergence, 31 g ai/ha): 0 | Plant response rating, Barley, Winter [8, 17]: 0 | Plant response rating, Barley, Winter [8, 18]: 0 | Plant response rating, Barley, Winter [8, 19]: 15 | Plant response rating, Barley, Winter [8, 20]: 0 | Speedwell plant response rating [9, 14]: 35 | Plant response rating, Speedwell [9, 15]: 80 | Plant response rating, Speedwell [9, 16]: 100 | Plant response rating (scale of 0 to 100), Speedwell ([9]; Preemergence, 31 g ai/ha): 50 | Plant response rating (scale of 0 to 100), Speedwell ([9]; Preemergence, 62 g ai/ha): 90 | Plant response rating, Speedwell [9, 18]: 100 | Plant response rating, Speedwell [9, 19]: 100 | Plant response rating, Speedwell [9, 20]: 70 | Galium plant response rating [10, 14]: 85 | Plant response rating, Galium [10, 15]: 100 | Plant response rating, Galium [10, 16]: 100 | Plant response rating (scale of 0 to 100), Galium ([10]; Preemergence, 31 g ai/ha): 30 | Plant response rating (scale of 0 to 100), Galium ([10]; Preemergence, 62 g ai/ha): 70 | Plant response rating, Galium [10, 18]: 75 | Plant response rating, Galium [10, 19]: 100 | Plant response rating, Galium [10, 20]: 95 | Barley, Spring plant response rating [11, 14]: 0 | Plant response rating, Barley, Spring [11, 15]: 15 | Plant response rating, Barley, Spring [11, 16]: 20 | Plant response rating (scale of 0 to 100), Barley, Spring ([11]; Preemergence, 31 g ai/ha): 0 | Plant response rating, Barley, Spring [11, 17]: 0 | Plant response rating, Barley, Spring [11, 18]: 0 | Plant response rating, Barley, Spring [11, 19]: 5 | Plant response rating, Barley, Spring [11, 20]: 0 | Oat, Wild plant response rating [12, 14]: 75 | Plant response rating, Oat, Wild [12, 15]: 95 | Plant response rating, Oat, Wild [12, 16]: 100 | Plant response rating (scale of 0 to 100), Oat, Wild ([12]; Preemergence, 31 g ai/ha): 75 | Plant response rating (scale of 0 to 100), Oat, Wild ([12]; Preemergence, 62 g ai/ha): 75 | Plant response rating, Oat, Wild [12, 18]: 85 | Plant response rating, Oat, Wild [12, 19]: 90 | Plant response rating, Oat, Wild [12, 20]: 85 | Mustard, Wild plant response rating [13, 14]: 10 | Plant response rating, Mustard, Wild [13, 15]: 30 | Plant response rating, Mustard, Wild [13, 16]: 80 | Plant response rating (scale of 0 to 100), Mustard, Wild ([13]; Preemergence, 31 g ai/ha): 25 | Plant response rating (scale of 0 to 100), Mustard, Wild ([13]; Preemergence, 62 g ai/ha): 25 | Plant response rating, Mustard, Wild [13, 18]: 35 | Plant response rating, Mustard, Wild [13, 19]: 40 | Plant response rating, Mustard, Wild [13, 20]: 25
